According to PubChem BioAssay AID190 (DTP/NCI, 2004):
“And” between values parts separate entries of the source, which are not always exact repeats. Identical values can stand only once. Toxic doses and inconclusive results are not listed.

System: AKR/Lw mice, AKR lymphoma ip, median survival T/C
Test: NCI In Vivo Anticancer Drug Screen. Data for tumor model Lymphoma AKR (Transplanted) (intraperitoneal) in AKR/Lw mice
Details: endpoint: median survival time, higher = longer survival
Procedure: The antitumor activity of compounds was measured in mice bearing transplantable tumors. Survival or tumor size were measured and the results are expressed as the measurement made in the treated group (T) divided by the measurement made in the vehicle treated control group (C). The tumor model used in this assay is Lymphoma AKR (Transplanted) (intraperitoneal) in AKR/Lw mice

[1] = dose: 25.0 mg/kg/injection, schedule: Q04DX003 (ip), vehicle: Klucel (hydroxypropylcellulose) (HPC)
[2] = dose: 50.0 mg/kg/injection, schedule: Q04DX003 (ip), vehicle: Klucel (hydroxypropylcellulose) (HPC)
[3] = dose: 100.0 mg/kg/injection, schedule: Q01DX001 (ip), vehicle: Klucel (hydroxypropylcellulose) (HPC)
[4] = dose: 100.0 mg/kg/injection, schedule: Q01DX001 (ip), vehicle: saline
[5] = dose: 100.0 mg/kg/injection, schedule: Q04DX003 (ip), vehicle: Klucel (hydroxypropylcellulose) (HPC)
[6] = dose: 200.0 mg/kg/injection, schedule: Q01DX001 (ip), vehicle: Klucel (hydroxypropylcellulose) (HPC)
[7] = dose: 200.0 mg/kg/injection, schedule: Q01DX001 (ip), vehicle: saline
[8] = dose: 400.0 mg/kg/injection, schedule: Q01DX001 (ip), vehicle: saline
[9] = dose: 400.0 mg/kg/injection, schedule: Q01DX001 (ip), vehicle: Klucel (hydroxypropylcellulose) (HPC)

Structure (SMILES): CN(C)/N=N/c1nc[nH]c1C(N)=O
- T/C (dose: 12.5 mg/kg/injection, schedule: Q01DX009 (ip), vehicle: saline): 120 % of control
- T/C (dose: 25.0 mg/kg/injection, schedule: Q01DX009 (ip), vehicle: saline with Tween-80): 111 % of control
- T/C (dose: 25.0 mg/kg/injection, schedule: Q01DX009 (ip), vehicle: saline): 106 % of control and 123 % of control
- T/C [1]: 102 % of control
- T/C (dose: 37.5 mg/kg/injection, schedule: Q04DX003 (ip), vehicle: Klucel (hydroxypropylcellulose) (HPC)): 116 % of control
- T/C (dose: 50.0 mg/kg/injection, schedule: Q01DX001 (ip), vehicle: Klucel (hydroxypropylcellulose) (HPC)): 102 % of control
- T/C (dose: 50.0 mg/kg/injection, schedule: Q01DX005 (ip), vehicle: water): 116 % of control
- T/C (dose: 50.0 mg/kg/injection, schedule: Q01DX009 (ip), vehicle: saline with Tween-80): 111 % of control
- T/C [2]: 105 % of control
- T/C (dose: 75.0 mg/kg/injection, schedule: Q04DX003 (ip), vehicle: Klucel (hydroxypropylcellulose) (HPC)): 102 % of control
- T/C (dose: 90.0 mg/kg/injection, schedule: Q01DX005 (ip), vehicle: Klucel (hydroxypropylcellulose) (HPC)): 158 % of control
- T/C [3]: 90 % of control and 113 % of control
- T/C [4]: 105 % of control and 107 % of control
- T/C (dose: 100.0 mg/kg/injection, schedule: Q01DX005 (ip), vehicle: water): 120 % of control
- T/C (dose: 100.0 mg/kg/injection, schedule: Q01DX009 (ip), vehicle: Klucel (hydroxypropylcellulose) (HPC)): 100 % of control and 123 % of control
- T/C (dose: 100.0 mg/kg/injection, schedule: Q01DX009 (ip), vehicle: saline with Tween-80): 111 % of control
- T/C [5]: 87 % of control
- T/C (dose: 135.0 mg/kg/injection, schedule: Q01DX005 (ip), vehicle: Klucel (hydroxypropylcellulose) (HPC)): 186 % of control and 188 % of control
- T/C (dose: 150.0 mg/kg/injection, schedule: Q01DX009 (ip), vehicle: saline): 111 % of control
- T/C [6]: 123 % of control
- T/C [7]: 107 % of control (2×) and 113 % of control
- T/C (dose: 200.0 mg/kg/injection, schedule: Q01DX005 (ip), vehicle: Klucel (hydroxypropylcellulose) (HPC)): 97 % of control
- T/C (dose: 200.0 mg/kg/injection, schedule: Q01DX005 (ip), vehicle: water): 114 % of control
- T/C (dose: 200.0 mg/kg/injection, schedule: Q01DX009 (ip), vehicle: Klucel (hydroxypropylcellulose) (HPC)): 100 % of control and 123 % of control
- T/C (dose: 200.0 mg/kg/injection, schedule: Q01DX009 (ip), vehicle: saline with Tween-80): 117 % of control
- T/C (dose: 200.0 mg/kg/injection, schedule: Q04DX003 (ip), vehicle: Klucel (hydroxypropylcellulose) (HPC)): 100 % of control and 121 % of control and 122 % of control
- T/C (dose: 250.0 mg/kg/injection, schedule: Q04DX003 (ip), vehicle: Klucel (hydroxypropylcellulose) (HPC)): 111 % of control
- T/C (dose: 300.0 mg/kg/injection, schedule: Q01DX001 (ip), vehicle: Klucel (hydroxypropylcellulose) (HPC)): 120 % of control and 123 % of control
- T/C (dose: 350.0 mg/kg/injection, schedule: Q04DX003 (ip), vehicle: Klucel (hydroxypropylcellulose) (HPC)): 163 % of control
- T/C (dose: 500.0 mg/kg/injection, schedule: Q01DX001 (ip), vehicle: Klucel (hydroxypropylcellulose) (HPC)): 107 % of control and 111 % of control
- T/C (dose: 600.0 mg/kg/injection, schedule: Q01DX001 (ip), vehicle: Klucel (hydroxypropylcellulose) (HPC)): 110 % of control and 111 % of control
- T/C (dose: 600.0 mg/kg/injection, schedule: Q01DX009 (ip), vehicle: Klucel (hydroxypropylcellulose) (HPC)): 102 % of control

Structure (SMILES): S=C1SCN(Cc2ccccc2)CN1Cc1ccccc1
- T/C [4]: 111 % of control
- T/C [7]: 91 % of control
- T/C [8]: 91 % of control

Structure (SMILES): Nc1ccn(C2OC(CO)C(O)C2O)c(=O)n1 (stereo unspecified)
- T/C (dose: 0.18 mg/kg/injection, schedule: Q01DX009 (ip), vehicle: saline): 87 % of control
- T/C (dose: 0.25 mg/kg/injection, schedule: Q01DX015 (ip), vehicle: saline): 86 % of control
- T/C (dose: 0.37 mg/kg/injection, schedule: Q01DX009 (ip), vehicle: saline): 96 % of control
- T/C (dose: 0.5 mg/kg/injection, schedule: Q01DX015 (ip), vehicle: saline): 93 % of control
- T/C (dose: 0.75 mg/kg/injection, schedule: Q01DX009 (ip), vehicle: saline): 100 % of control
- T/C (dose: 1.0 mg/kg/injection, schedule: Q01DX015 (ip), vehicle: saline): 100 % of control
- T/C (dose: 3.12 mg/kg/injection, schedule: Q04DX003 (ip), vehicle: saline): 94 % of control
- T/C (dose: 5.0 mg/kg/injection, schedule: Q01DX009 (ip), vehicle: saline): 150 % of control
- T/C (dose: 5.0 mg/kg/injection, schedule: Q03HX032 (ip), vehicle: saline): 150 % of control
- T/C (dose: 10.0 mg/kg/injection, schedule: Q03HX032 (ip), vehicle: saline): 150 % of control
- T/C (dose: 12.5 mg/kg/injection, schedule: Q04DX003 (ip), vehicle: saline): 94 % of control
- T/C (dose: 15.0 mg/kg/injection, schedule: Q01DX009 (ip), vehicle: saline with Tween-80): 97 % of control
- T/C (dose: 15.0 mg/kg/injection, schedule: Q04DX003 (ip), vehicle: saline): 120 % of control
- T/C (dose: 18.75 mg/kg/injection, schedule: Q06HX004 (ip), vehicle: saline): 150 % of control
- T/C (dose: 18.75 mg/kg/injection, schedule: Q06HX016 (ip), vehicle: saline): 170 % of control
- T/C (dose: 18.8 mg/kg/injection, schedule: Q04DX003 (ip), vehicle: saline): 87 % of control
- T/C (dose: 19.0 mg/kg/injection, schedule: Q04DX003 (ip), vehicle: saline): 100 % of control
- T/C (dose: 25.0 mg/kg/injection, schedule: Q01DX001 (ip), vehicle: saline): 97 % of control
- T/C (dose: 25.0 mg/kg/injection, schedule: Q04DX003 (ip), vehicle: saline): 100 % of control
- T/C (dose: 40.0 mg/kg/injection, schedule: Q06HX012 (ip), vehicle: saline): 96 % of control
- T/C (dose: 50.0 mg/kg/injection, schedule: Q01DX001 (ip), vehicle: saline): 94 % of control and 100 % of control
- T/C (dose: 50.0 mg/kg/injection, schedule: Q04DX003 (ip), vehicle: saline): 100 % of control
- T/C [4]: 100 % of control
- T/C (dose: 100.0 mg/kg/injection, schedule: Q01DX009 (ip), vehicle: saline): 87 % of control and 96 % of control
- T/C (dose: 150.0 mg/kg/injection, schedule: Q03HX016 (ip), vehicle: saline): 59 % of control
- T/C (dose: 400.0 mg/kg/injection, schedule: Q04DX003 (ip), vehicle: saline): 110 % of control

Structure (SMILES): CC(=O)N(C(C)=O)c1ccc(C)cc1
- T/C [4]: 93 % of control
- T/C [7]: 104 % of control
- T/C [8]: 104 % of control

Structure (SMILES): O=C1N[C@@H]([C@H]2CC[C@H](Cl)CN2)C(=O)N[C@H]1[C@H]1CC[C@H](Cl)CN1
- T/C (dose: 0.5 mg/kg/injection, schedule: Q01DX001 (ip), vehicle: water): 113 % of control
- T/C (dose: 1.0 mg/kg/injection, schedule: Q01DX001 (ip), vehicle: water): 111 % of control
- T/C (dose: 2.0 mg/kg/injection, schedule: Q01DX001 (ip), vehicle: saline): 102 % of control and 105 % of control
- T/C (dose: 2.0 mg/kg/injection, schedule: Q01DX001 (ip), vehicle: water): 114 % of control and 119 % of control
- T/C (dose: 2.0 mg/kg/injection, schedule: Q01DX009 (ip), vehicle: water): 178 % of control
- T/C (dose: 4.0 mg/kg/injection, schedule: Q01DX001 (ip), vehicle: saline): 102 % of control
- T/C (dose: 4.0 mg/kg/injection, schedule: Q01DX001 (ip), vehicle: water): 117 % of control
- T/C (dose: 8.0 mg/kg/injection, schedule: Q01DX001 (ip), vehicle: saline): 122 % of control
- T/C (dose: 8.0 mg/kg/injection, schedule: Q01DX001 (ip), vehicle: water): 171 % of control and 200 % of control
- T/C (dose: 16.0 mg/kg/injection, schedule: Q01DX001 (ip), vehicle: saline): 108 % of control
- T/C (dose: 16.0 mg/kg/injection, schedule: Q01DX001 (ip), vehicle: water): 207 % of control

Structure (SMILES): c1cc2cc3c(cc2cc1CC1NCCc2cc4c(cc21)OCO4)OCO3 (stereo unspecified)
- T/C [3]: 94 % of control
- T/C [5]: 96 % of control
- T/C [6]: 105 % of control
- T/C [9]: 94 % of control

Structure (SMILES): C#CCn1cnc2c(Cl)ncnc21
- T/C [3]: 97 % of control
- T/C [6]: 104 % of control
- T/C [9]: 107 % of control

Structure (SMILES): COc1ccc(C2c3cc4c(c(OC)c3CC3OCC(=O)C32)OCO4)cc1OC (stereo unspecified)
- T/C (dose: 25.0 mg/kg/injection, schedule: Q01DX009 (ip), vehicle: Klucel (hydroxypropylcellulose) (HPC)): 110 % of control
- T/C (dose: 50.0 mg/kg/injection, schedule: Q01DX009 (ip), vehicle: Klucel (hydroxypropylcellulose) (HPC)): 103 % of control

Structure (SMILES): Clc1nnc(Nc2ccccc2)c2ccccc12
- T/C [1]: 86 % of control
- T/C [2]: 98 % of control
- T/C [3]: 92 % of control
- T/C [5]: 92 % of control
- T/C (dose: 100.0 mg/kg/injection, schedule: Q04DX003 (ip), vehicle: saline): 100 % of control
- T/C [6]: 96 % of control
- T/C [9]: 96 % of control
